According to patent publication US7608761B2, “Method for disease control in MON89788 soybean” (Monsanto Technology LLC, priority 2005, dated 2009):

Tests used:
[1] = test system: Asian Soybean Rust (ASR) (Loxley Al isolate); assay: Growth chamber detached soybean leaf assay, ASR on MON89788; type: in vivo, Phakopsora sp.
Description: Growth chamber and greenhouse assays were conducted to determine if glyphosate treatments (Roundup® WeatherMax) decreased the disease severity of Asian Soybean Rust (ASR) on MON89788. Growth chamber assays were conducted following a detached leaf assay method. Plants of MON89788 were grown in the greenhouse and leaves from the 3rd trifoliate were detached and placed in 6-well trays with water. Five treatments were evaluated: (1) an untreated check inoculated with spores of ASR (Loxley Al isolate); (2) leaf tissue of MON89788 inoculated with ASR spores and treated with glyphosate post-sporulation (13 days after inoculation with spores (DAI)); (3) MON89788 treated with 1× rate (0.75 lb/acre) of Roundup® WeatherMax 5 DAI; (4) MON89788 treated with […] of Roundup® WeatherMax 5 DAI; and (5) MON89788 treated with 3× rate of Roundup® WeatherMax 5 DAI.
The leaves were rated for disease severity 12 DAI, 20 DAI, and 25 DAI.
The analysis of the disease progression is illustrated in FIG. 2 and measured as the Area Under Disease Progress Curve (AUDPC) for the same material summarized in FIG. 1. […] The disease progression was reduced for all glyphosate treatments at 5DAI and the 2× rate post-sporulation.

[2] = test system: Frogeye Leafspot (Cercospora sojina); assay: Greenhouse disease severity on MON89788, Frogeye Leafspot; type: in vivo; parameters: key to Frogeye disease severity (DS): 1 = no symptoms; 2 = ≤10% leaf infected … 9 = >85% leaf infected; details: for Frogeye disease severity (DS): 1-9 scale
Description: (§1) Soybean plants comprising event MON89788 and grown under standard conditions in a greenhouse were treated with 1×, 2× or 3× concentrations of glyphosate and inoculated with the plant pathogens 1 DBI, 1 DAI and 4 DAI. Disease symptoms for each disease was rated on a 1-9 scale as an approximate measure of disease severity (DS)occurring on the leaves, 1 is no symptoms, 2 is up to 10% of the leaf infected, 3 is 11-20% of the leaf infected, 4 is 21-35%, 5 is 36-50%, 7 is 66-75%, 8 is 76-85%, 9 is greater than 85% of the leaf is infected and showing disease symptoms.

[3] = test system: powdery mildew disease; assay: Powdery mildew disease control on MON89788; type: in vivo, Microsphaera diffusa; details: for DS Mean (powdery mildew): treated 1 DBI, no spray control 4.65
Text: The mean disease severity score for the no spray control was 4.65, the glyphosate treatments provided a high level of disease control at all treatment rates.

[4] = test system: Cercospora leaf blight; assay: Greenhouse disease severity on MON89788, Cercospora leaf blight; type: in vivo, Cercospora carotae; parameters: key to Cercospora Leaf Blight disease severity (DS): 1 = no symptoms; 2 = ≤10% leaf infected … 9 = >85% leaf infected; details: 1-9 scale
Description: as §1

[5] = test system: Cercospora leaf blight (Cercospora carotae); assay: as above; type: in vivo; parameters: key to Cercospora Leaf Blight disease severity (DS): 1 = no symptoms; 2 = ≤10% leaf infected … 9 = >85% leaf infected; details: 1×, 2× or 3×; 1 DBI, 1 DAI and 4 DAI
Description: as §1

[6] = test system: Asian Soybean Rust (ASR); assay: Greenhouse assay on intact MON89788 plants, ASR; type: in vivo, Phakopsora sp.
Description: Greenhouse assays on intact MON89788 plants were treated with 1×, 2×, and 3× rates of Roundup® WeatherMax at 6 DBI (days before inoculation) and 9 DAI. Results for this experiment were collected 17 DAI.

[7] = test system: Aerial blight (Rhizoctonia solani); assay: Greenhouse disease severity on MON89788, Aerial blight; type: in vivo; details: for Aerial Blight disease severity (DS): 1-9 scale
Description: as §1

[8] = 1×, 2× or 3×, 1 DBI, 1 DAI and 4 DAI

O=C(O)CNCP(=O)(O)O [glyphosate, N-phosphonomethylglycine] was tested, and the “Area Under Disease Progress Curve (AUDPC)” value ([1]; 2× rate) was “lower compared to other treatments”, the “disease progression (AUDPC)” value ([1]; 2× rate post-sporulation) was “reduced” and the “Area Under Disease Progress Curve (AUDPC)” value ([1]; 3× rate) was “lower compared to other treatments”. For the same compound, the “disease progression (AUDPC)” value ([1]; all glyphosate treatments at 5DAI) was “reduced”, the ASR sporulation ([1]; post-disease development/sporulation treatments) was “appeared to arrest sporulation” and the “Frogeye disease severity (DS)” value ([2]; 1 day post inoculation, 1X) was 3.4. For the same compound, the “Frogeye disease severity (DS)” value ([2]; 1 day post inoculation, 2X) was 3.3, the “Frogeye disease severity (DS)” value ([2]; 1 day post inoculation, 3X) was 7.2 and the “Frogeye disease severity (DS)” value ([2]; 1 day pre inoculation, 1X) was 2.7. The “Frogeye disease severity (DS)” value ([2]; 1 day pre inoculation, 2X) was 3.7, the “Frogeye disease severity (DS)” value ([2]; 1 day pre inoculation, 3X) was 3.8 and the “Frogeye disease severity (DS)” value ([2]; 4 days post inoculation, 1X) was 3.7. The “Frogeye disease severity (DS)” value ([2]; 4 days post inoculation, 2X) was 5.3, the “Frogeye disease severity (DS)” value ([2]; 4 days post inoculation, 3X) was 2.3 and the “disease severity control, Frogeye Leafspot” value [2, 8] was “preventative and curative disease severity control”. The “DS Mean (powdery mildew)” value ([3]; 0.75 lb ae/a (1X)) was 1, the “DS Mean (powdery mildew)” value ([3]; 1.5 lb ae/a (2X)) was 1 and the “DS Mean (powdery mildew)” value ([3]; 2.25 lb ae/a (3X)) was 1. For the same compound, the “control of powdery mildew disease” value ([3]; treated 1 DBI with any of the three rates) was “high level of control”, the “Cercospora Leaf Blight disease severity (DS)” value ([4]; 1 day post inoculation, 1X) was 2.8 and the “Cercospora Leaf Blight disease severity (DS)” value ([4]; 1 day post inoculation, 2X) was 6.4. For the same compound, the “Cercospora Leaf Blight disease severity (DS)” value ([4]; 1 day post inoculation, 3X) was 6.5, the “Cercospora Leaf Blight disease severity (DS)” value ([4]; 1 day pre inoculation, 1X) was 2.8 and the “Cercospora Leaf Blight disease severity (DS)” value ([4]; 1 day pre inoculation, 2X) was 6.1. For the same compound, the “Cercospora Leaf Blight disease severity (DS)” value ([4]; 1 day pre inoculation, 3X) was 3.8, the “Cercospora Leaf Blight disease severity (DS)” value ([4]; 4 days post inoculation, 1X) was 3.3 and the “Cercospora Leaf Blight disease severity (DS)” value ([4]; 4 days post inoculation, 2X) was 3.2. The “Cercospora Leaf Blight disease severity (DS)” value ([4]; 4 days post inoculation, 3X) was 4.9, the “disease severity control, Cercospora leaf blight” value [5] was “preventative and curative disease severity control” and the “levels of ASR infection and disease” value ([6]; 1×, 2×, 3× at 6 DBI or 9 DAI, all except 1× at 6 DBI, collected 17 DAI) was “lower levels of ASR infection and disease”. The “rate of ASR disease development” value ([6]; pre-inoculation treatments) was “appeared to slow the rate of disease development”, the “levels of ASBR” value ([6]; split treatments (1× pre+1× post-inoculation)) was “reduced levels of ASBR similar to single 2× and 3× pre- or post-inoculation” and the “Aerial Blight disease severity (DS)” value ([7]; 1 day post inoculation, 1X) was 5.0. The “Aerial Blight disease severity (DS)” value ([7]; 1 day post inoculation, 2X) was 6.4, the “Aerial Blight disease severity (DS)” value ([7]; 1 day post inoculation, 3X) was 6.9 and the “Aerial Blight disease severity (DS)” value ([7]; 1 day pre inoculation, 1X) was 7.1. The “Aerial Blight disease severity (DS)” value ([7]; 1 day pre inoculation, 3X) was 8.0, the “Aerial Blight disease severity (DS)” value ([7]; 4 days post inoculation, 1X) was 7.6 and the “Aerial Blight disease severity (DS)” value ([7]; 4 days post inoculation, 2X) was 4.4. For the same compound, the “Aerial Blight disease severity (DS)” value ([7]; 4 days post inoculation, 3X) was 7.9 and the “disease severity control, Aerial blight” value [7, 8] was “preventative and curative disease severity control”.
